According to PMC8228121, “Super-Cationic Peptide Dendrimers—Synthesis and Evaluation as Antimicrobial Agents” (Antibiotics, 2021):
≈ marks a conversion by molar mass, not a printed value. Where two headings read alike, the source gives them in different places. Bridge positions count the residues as written; N and C are the ends. Square brackets hold non-standard residues; d marks the D form. Side chains are listed from the residue outwards. Peptide text beside a SMILES is read from it. I, II: the chains in the order shown. Orn = NCCC[C@H](N)C(=O)O

Legend:
[1] = system: P. aeruginosa ATCC 27853; assay: microbe, parasite or virus in culture; assay type: cell-based, Pseudomonas aeruginosa
Procedure: (§1) Clinical isolates of CRE, MRSA and VRE were obtained from Lancet Laboratories, Durban, South Africa, with approval BE394/15 from the Biomedical Research Ethical Committee of the University of KwaZulu-Natal. Five reference strains of bacteria, namely Escherichia coli ATCC 25922, Pseudomonas aeruginosa ATCC 27853, Enterococcus faecium ATCC 35667, Staphylococcus aureus ATCC 29213 and Bacillus subtilis ATCC 6051 were supplied by the American Type Culture Collection (ATCC).
(§2) MIC values were determined by the broth microdilution method and the significance of the values obtained was interpreted following the guidelines of the Clinical and Laboratory Standards for Antimicrobial Susceptibility Testing.. The effect of human serum on the antimicrobial effect of the molecules tested was determined in a similar way to the MIC method used above in a solution of 50% human serum plus Mueller–Hinton broth.

[2] = system: S. aureus ATCC 29213; assay: microbe, parasite or virus in culture; assay type: cell-based, Staphylococcus aureus
Procedure: as §1, §2

[3] = system: E. faecium ATCC 35667; assay: microbe, parasite or virus in culture; assay type: cell-based, Enterococcus faecium
Procedure: as §1, §2

[4] = system: E. coli ATCC 25822; assay: microbe, parasite or virus in culture; assay type: cell-based, Escherichia coli
Procedure: as §1, §2

[5] = system: B. subtilis ATCC 6051; assay: microbe, parasite or virus in culture; assay type: cell-based, Bacillus subtilis
Procedure: as §1, §2

[6] = system: HepG2 cells; assay: MTT cytotoxicity assay; assay type: cell-based, human; conditions: HepG2, range of concentrations tested
Procedure: (§4) Cell viability was evaluated using the colorimetric MTT assay [21]. Human hepatocarcinoma (HepG2) cells and human embryonic kidney 293 (HEK-293) cells used in the drug toxicity assays were obtained from Cellonex (Johannesburg, South Africa). Viable HepG2 and HEK293 cells (20,000 cells/well) were seeded into a 96-well microtiter plate (200 µL) and allowed to attach overnight. The cells were exposed to varying concentrations of the peptides for 24 h. After removal of the treatment medium, 20 µL of MTT salt solution (5 mg/mL in 0.1M phosphate buffer saline (PBS)) and 100 µL of complete cell culture medium (CCM) were added to each well. After a 4 h (37 °C) incubation, the MTT salt solution was discarded and 100 μL of dimethyl sulphoxide (DMSO) were added to each well (1 h, 37 °C). The optical density of the solubilized formazan product was measured at 570 nm (reference λ of 690 nm) using a Bio-tek μQuant spectrophotometer (Winooski, VT, USA). […] GraphPad Prism (V5) (La Jolla, CA, USA) was used to obtain the half maximum inhibitory concentration (IC50) for each compound.

[7] = in vitro; conditions: human
Procedure: as §4

[8] = system: P. aeruginosa; assay: Effect on bacterial growth curves; assay type: cell-based
Procedure: (§3) The study of the growth dynamic of the S. aureus, E. coli and P.aeruginosa strains against CAMPDs were assayed with a starting inoculum of 10^6–10^8 CFU/mL in a 10 mL specific falcon tube. The experiment was performed by a real-time reverse-spin bioreactor RTS-1 (Biosan SIA, Riga, Latvia) that applies non-invasive, mechanically driven rotation; thus, the cell suspension is mixed efficiently, mixing and oxygening the culture at 37 °C. Cell growth kinetics were recorded non-invasively in real time from data obtained from a near-infrared optical system, every 15 min.

[9] = system: MRSA (methicillin-resistant S. aureus) isolates; assay: microbe, parasite or virus in culture; assay type: cell-based; conditions: methicillin-resistant ) isolates
Procedure: as §1, §2

[10] = MTT cytotoxicity assay; assay type: cell-based, human; conditions: human, HepG2 cells, HepG2, 24 h exposure
Procedure: as §4

[11] = system: E. coli; assay: Effect on bacterial growth curves; assay type: cell-based; conditions: irrespective of concentration (MIC, ½ MIC and ¼ MIC)
Procedure: as §3

[12] = system: S. aureus; assay: Effect on bacterial growth curves; assay type: cell-based; conditions: at MIC, ½ MIC and ¼ MIC
Procedure: as §3

[13] = system: P. aeruginosa; assay: Time–kill curves; assay type: cell-based
Procedure: Killing curve assays were performed with a starting inoculum of 6 × 10^6 CFU/mL. […] Antimicrobials were added to 5 mL of bacteria in the exponential phase of growth and incubated at 37 °C with shaking. Samples were obtained aseptically at 0, 1, 2, 4, 6 and 24 h, diluted in Ringer 1/4 and plated on TSA for colony counting. The response of microbial strains to a single antimicrobial was determined by lowering logarithms of viable bacteria. In accordance with Lora-Tamayo et al., an antimicrobial was considered active when a reduction of ≥1 log10 relative to the initial inoculum was observed.

[14] = system: CRE, E. coli isolates; assay: microbe, parasite or virus in culture; assay type: cell-based; conditions: Escherichia coli
Procedure: as §1, §2

Compound | MBC ([1]; ATCC 27853) [µg/mL] | MIC ([1]; ATCC 27853) [µg/mL] | MBC ([2]; ATCC 29213) [µg/mL] | MIC ([2]; ATCC 29213) [µg/mL] | MIC ([3]; ATCC 35667) [µg/mL] | MBC ([4]; ATCC 25822) [µg/mL] | MIC ([4]; ATCC 25822) [µg/mL] | MBC ([5]; ATCC 6051) [µg/mL] | MIC ([5]; ATCC 6051) [µg/mL] | IC50 at 24 h [7] [µg/mL] | MBC ([3]; ATCC 35667) [µg/mL] | MIC [9] [µg/mL] | IC50 at 24 h [10] [µg/mL] | time–kill: effect on bacterial population ([13]; at MIC) | time–kill: effect on bacterial population ([13]; at ¼ MIC) | time–kill: effect on bacterial population ([13]; at ½ MIC) | further results
CC(C)C[C@H](NC(=O)[C@H](CC(C)C)NC(=O)[C@H](CCCCN)NC(=O)[C@H](CC(C)C)NC(=O)[C@H](CC(C)C)NC(=O)[C@H](CCCCNC(=O)[C@H](CCCCN)NC(=O)[C@H](CC(C)C)NC(=O)[C@@H](N)CCCCN)NC(=O)[C@H](CCCCN)NC(=O)[C@H](CC(C)C)NC(=O)[C@@H](N)CCCCN)C(N)=O [G1KLK-L2KL2, (KLK)2KLLKLL-NH2] (H-KLKK([Lys-Leu-Lys])LLKLL-NH2) | 32 (≈ 21.8 µM) | 32 (≈ 21.8 µM) | 128 (≈ 87.4 µM) | 128 (≈ 87.4 µM) | >128 | 32 (≈ 21.8 µM) | 32 (≈ 21.8 µM) | 64 (≈ 43.7 µM) | 64 (≈ 43.7 µM) | – | – | – | – | – | – | – | toxicity (MTT) [6]: did not show toxicity at the range of concentrations tested
CC(C)C[C@H](NC(=O)[C@H](CC(C)C)NC(=O)[C@H](CCCCN)NC(=O)[C@H](CC(C)C)NC(=O)[C@H](CC(C)C)NC(=O)[C@H](CCCCNC(=O)[C@H](CCCCN)NC(=O)[C@H](CC(C)C)NC(=O)[C@H](CCCCN)NC(=O)[C@H](CCCCNC(=O)[C@H](CCCCN)NC(=O)[C@H](CC(C)C)NC(=O)[C@@H](N)CCCCN)NC(=O)[C@H](CCCCN)NC(=O)[C@H](CC(C)C)NC(=O)[C@@H](N)CCCCN)NC(=O)[C@H](CCCCN)NC(=O)[C@H](CC(C)C)NC(=O)[C@H](CCCCN)NC(=O)[C@H](CCCCNC(=O)[C@H](CCCCN)NC(=O)[C@H](CC(C)C)NC(=O)[C@@H](N)CCCCN)NC(=O)[C@H](CCCCN)NC(=O)[C@H](CC(C)C)NC(=O)[C@@H](N)CCCCN)C(N)=O [G2KLK-L2KL2, (KLK)4(KKLK)2KLLKLL-NH2] (I: H-KLKK([Lys-Leu-Lys])KLKKLLKLL-NH2 / II: H-KLKK([Lys-Leu-Lys])KLK; amide I:8-II:C) | 16 (≈ 5 µM) | 8 to 16 | 32 (≈ 10 µM) | 32 (≈ 10 µM) | 32 (≈ 10 µM) | 32 (≈ 10 µM) | 16 (≈ 5 µM) | 8 (≈ 2.5 µM) | 8 (≈ 2.5 µM) | 116 (≈ 36.2 µM) | 32 (≈ 10 µM) | 64 (≈ 20 µM) | 124 (≈ 38.7 µM) | – | – | – | effect on growth curve ([8]; at ½ MIC or ¼ MIC): less capacity to delay growth
CC(C)C[C@H](NC(=O)[C@H](CC(C)C)NC(=O)[C@H](CCCN)NC(=O)[C@H](CC(C)C)NC(=O)[C@H](CC(C)C)NC(=O)[C@H](CCCCNC(=O)[C@H](CCCN)NC(=O)[C@H](CC(C)C)NC(=O)[C@H](CCCN)NC(=O)[C@H](CCCCNC(=O)[C@H](CCCN)NC(=O)[C@H](CC(C)C)NC(=O)[C@@H](N)CCCN)NC(=O)[C@H](CCCN)NC(=O)[C@H](CC(C)C)NC(=O)[C@@H](N)CCCN)NC(=O)[C@H](CCCN)NC(=O)[C@H](CC(C)C)NC(=O)[C@H](CCCN)NC(=O)[C@H](CCCCNC(=O)[C@H](CCCN)NC(=O)[C@H](CC(C)C)NC(=O)[C@@H](N)CCCN)NC(=O)[C@H](CCCN)NC(=O)[C@H](CC(C)C)NC(=O)[C@@H](N)CCCN)C(N)=O [G2OLO-L2OL2, (OLO)4(KOLO)2KLLOLL-NH2] (I: H-[Orn]L[Orn]K([Orn-Leu-Orn])[Orn]L[Orn]KLL[Orn]LL-NH2 / II: H-[Orn]L[Orn]K([Orn-Leu-Orn])[Orn]L[Orn]; amide I:8-II:C) | 32 (≈ 10.6 µM) | 32 (≈ 10.6 µM) | 32 (≈ 10.6 µM) | 32 (≈ 10.6 µM) | 8 (≈ 2.65 µM) | 32 (≈ 10.6 µM) | 32 (≈ 10.6 µM) | 32 (≈ 10.6 µM) | 32 (≈ 10.6 µM) | 199 (≈ 65.9 µM) | 8 (≈ 2.65 µM) | 64 (≈ 21.2 µM) | 141 (≈ 46.8 µM) | killed all bacteria within the first hour of exposure and regrowth was observed after the second hour | the bacterial population was not totally eliminated | the bacterial population was not totally eliminated | effect on growth curve ([8]; at the MIC): abolished growth; delay in growth ([8]; at ¼ MIC): ~2 h; delay in growth ([8]; at ½ MIC): 10 h; effect on growth curve [11]: abolished bacterial growth; effect on growth curve [12]: negligible
CC(C)C[C@H](NC(=O)[C@H](CC(C)C)NC(=O)[C@H](CCCNC(=N)N)NC(=O)[C@H](CC(C)C)NC(=O)[C@H](CC(C)C)NC(=O)[C@H](CCCCNC(=O)[C@H](CCCNC(=N)N)NC(=O)[C@H](CC(C)C)NC(=O)[C@H](CCCNC(=N)N)NC(=O)[C@H](CCCCNC(=O)[C@H](CCCNC(=N)N)NC(=O)[C@H](CC(C)C)NC(=O)[C@@H](N)CCCNC(=N)N)NC(=O)[C@H](CCCNC(=N)N)NC(=O)[C@H](CC(C)C)NC(=O)[C@@H](N)CCCNC(=N)N)NC(=O)[C@H](CCCNC(=N)N)NC(=O)[C@H](CC(C)C)NC(=O)[C@H](CCCNC(=N)N)NC(=O)[C@H](CCCCNC(=O)[C@H](CCCNC(=N)N)NC(=O)[C@H](CC(C)C)NC(=O)[C@@H](N)CCCNC(=N)N)NC(=O)[C@H](CCCNC(=N)N)NC(=O)[C@H](CC(C)C)NC(=O)[C@@H](N)CCCNC(=N)N)C(N)=O [G2RLR-L2RL2, (RLR)4(KRLR)2KLLRLL-NH2] (I: H-RLRK([Arg-Leu-Arg])RLRKLLRLL-NH2 / II: H-RLRK([Arg-Leu-Arg])RLR; amide I:8-II:C) | 64 (≈ 18 µM) | 64 (≈ 18 µM) | 32 (≈ 8.98 µM) | 32 (≈ 8.98 µM) | 16 (≈ 4.49 µM) | 64 (≈ 18 µM) | 64 (≈ 18 µM) | 16 (≈ 4.49 µM) | 16 (≈ 4.49 µM) | 67.4 (≈ 18.9 µM) | 16 (≈ 4.49 µM) | – | 102 (≈ 28.7 µM) | reduced the bacterial population to almost zero and no regrowth was appreciated after 24 h | the bacterial population remained partially inhibited at the beginning of the exposure | reduced the bacterial population to almost zero and no regrowth was appreciated after 24 h | –
C[C@@H](O)[C@H]1C(=O)N2C(C(=O)O)=C(S[C@@H]3CN[C@H](C(=O)N(C)C)C3)[C@H](C)[C@H]12 [Meropenem, reference compound] | – | – | – | – | – | – | – | – | – | – | – | – | – | – | – | – | MIC ([1]; Pseudomonas aeruginosa, ATCC27853, P. aeruginosa ATCC 27853, read-out: MIC): 1 µg/mL (≈ 2.61 µM); MIC ([2]; Staphylococcus aureus, ATCC29213, S. aureus ATCC 29213, read-out: MIC): 0.25 µg/mL (≈ 0.652 µM); MIC ([3]; Enterococcus faecium, ATCC35667, E. faecium ATCC 35667, read-out: MIC): < 0.25 µg/mL; MIC ([14]; CRE E. coli isolate IMP JAP): 8 µg/mL (≈ 20.9 µM); MIC ([14]; CRE E. coli isolate KPC L2l): 16 µg/mL (≈ 41.7 µM); MIC ([14]; CRE E. coli isolate NDM4-FEK): > 32 µg/mL; MIC ([14]; CRE E. coli isolate OXA-48 501): 2 µg/mL (≈ 5.22 µM); MIC ([14]; CRE E. coli isolate VIM-1 BM-12): > 32 µg/mL; MIC ([4]; Escherichia coli, ATCC25822): 0.125 µg/mL (≈ 0.326 µM); MIC ([5]; Bacillus subtilis, ATCC6051, B. subtilis ATCC 6051, read-out: MIC): 0.062 µg/mL (≈ 0.162 µM)
